Earlier results in PMC13366575, “Structure−Activity Relationships among Inhibitors of Acinetobacter baumannii and Klebsiella pneumoniae 1-Deoxy-D-xylulose 5-Phosphate Reductoisomerase (DXR/IspC) − A Promising Target for Antibiotic Development” (ACS Infectious Diseases, 2026).

Biological target: KpIspC (Klebsiella pneumoniae, UniProt A6T4X5)
Sequence (A6T4X5 entry or part of it): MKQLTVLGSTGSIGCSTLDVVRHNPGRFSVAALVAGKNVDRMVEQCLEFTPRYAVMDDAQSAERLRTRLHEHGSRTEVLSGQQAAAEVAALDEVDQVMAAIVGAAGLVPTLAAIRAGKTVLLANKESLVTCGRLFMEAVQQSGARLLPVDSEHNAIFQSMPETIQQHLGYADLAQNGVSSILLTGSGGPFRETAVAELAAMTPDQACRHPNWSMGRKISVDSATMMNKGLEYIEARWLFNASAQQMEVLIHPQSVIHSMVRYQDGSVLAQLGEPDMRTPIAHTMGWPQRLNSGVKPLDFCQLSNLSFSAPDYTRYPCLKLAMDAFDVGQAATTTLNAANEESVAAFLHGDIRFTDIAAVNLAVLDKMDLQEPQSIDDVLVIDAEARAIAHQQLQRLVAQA

O=CN(O)CCCP(=O)(O)O [Compound 1a, Fosmidomycin]
IC50: 0.02 µM
